From patent US20130326734A1, “COMPOSITIONS AND METHODS FOR CONTROLLING CARBON DIOXIDE- (CO2-) REGULATED STOMATAL APERTURES, WATER TRANSPIRATION AND WATER USE EFFICIENCY IN PLANTS” (THE REGENTS OF THE UNIVERSITY OF CALIFORNIA, priority 2011, published 2013)
Marks after values point to notes of the source that are not given here.

Columns and labels:
[1] = tested on: intracellular pH of Arabidopsis guard cells; test: Fluorescence imaging of guard cells expressing the pH sensor Pt-GFP; format: cell-based
Experimental: Fluorescence imaging was performed with a TE300 inverted microscope using a TE-FM Epi-Fluorescence attachment (Nikon) as previously described (Allen et al, 2000). Fluorescence images at excitation wavelengths of 470 nm and 440 nm were taken every 2 s using light from a 75-Watt xenon short arc lamp (Osram, Germany). […] neutral density filters were used to reduce bleaching of fluorescent reporter. Metafluor software (MDS, Inc.) was used to control filter wheels, shutter and COOLSNAP™ (CoolSNAP) CCD camera from Photomerics when recording and also processing raw data. The fluorescence ratio F470/F440 of Pt-GFP was analyzed as a detection of pH shifts (Schulte et al, 2006). […]
For recording intracellular Pt-GFP fluorescence in response to changes in extracellular pH incubation buffers, the pH of incubation buffers containing 10 mM MES, 10 mM KCl and 50 μM CaCl2 at 5.0 and 7.5 was adjusted by adding Tris-HCl. […] For recording intracellular Pt-GFP fluorescence in response to constant extracellular pH and added weak acid, the perfusion buffers contained 10 mM MES, 10 mM KCl and 50 μM CaCl2, pH 5.6 supplemented with the indicated concentrations of sodium butyrate. […] Background fluorescence intensities at 470 nm were measured in regions lacking guard cells and are also shown for the corresponding experiments.

[2] = tested on: S-type anion channel currents in Arabidopsis guard cell protoplasts; test: Whole-cell patch-clamp recording of S-type anion currents in guard cell protoplasts; format: cell-based; conditions: for current amplitude activated by bicarbonate at a voltage of −146 mV: 13.5 mM total bicarbonate; for HCO3− activated S-type anion current at a voltage of −146 mV: 11.5 mM [HCO3−]i and 2 mM [CO2]; for I (pA) at −146 mV: wild type Col-0 guard cells, pipette pH 7.1
Experimental: The interpulse period was 5 s. Liquid junction potentials (LJP) were determined using Clampex 10.0. No leak subtraction was applied for all current-voltage curves. Steady-state currents were the average currents during the last 500 ms of pulses. Detail contents of solutions are discussed, below (see “supplementary data”). Bicarbonate (CsHCO3) was freshly dissolved in the pipette solution before patch clamp experiments and pH was adjusted to the indicated values. The pipette solution was stored using air-tight precision glass syringes during patch clamp experiments to slow CO2 equilibration with the surrounding air and was not stored overnight. […] [HCO3^−] represents the free bicarbonate concentration; [CO2] represents the free CO2 concentration. […] To independently measure CO2 concentrations in the solutions at different pH values, an InPro 5000 CO2 sensor (Mettler Tolego 400, Mettler-Toledo Inc, USA) was used for dissolved CO2. The InPro 5000 sensor employs a gas permeable silicone membrane. The significance of differences between data sets was assessed by noncoupled double-tailed Student's t-test analysis. Values of P<0.05 were considered statistically significant.
For experiments analyzing effects of protons on S-type anion currents, the pipette solution contained 150 mM CsCl, 2 mM MgCl2, 6.7 mM EGTA, 0.6 mM CaCl2 (2 μM [Ca^2+]i), 5 mM Mg-ATP, 5 mM Tris-GTP, 1 mM Mes/Tris, pH 6.1. For experiments with pipette solution at pH 7.8, the pipette medium contained 150 mM CsCl, 2 mM MgCl2, 2 μM free [Ca^2+]i, 5 mM Mg-ATP, 5 mM Tris-GTP, 1 mM HEPES/Tris. Calcium affinities of EGTA and free Ca^2+ concentrations were calculated using the WEBMAXC tool (http://www.stanford.edu/-epatton/webmaxc/webmaxcE.htm), which considers pH, [ATP] and ionic conditions. The bath solution contained 30 mM CsCl, 2 mM MgCl2, 5 mM CaCl2 and 10 mM Mes/Tris, pH 5.6.

[3] = tested on: voltage-dependent anion channels (R-type anion channels) in Arabidopsis hypocotyl cells; conditions: Arabidopsis hypocotyl cells (Frachisse et al, 1999); cited from earlier work
[4] = tested on: Arabidopsis intact leaves; test: Stomatal conductance measurements of intact leaves in response to imposed [CO2] (Li-6400 gas exchange analyzer); format: in vivo
Experimental: Stomatal conductance measurements of 5-week-old plants in response to the imposed [CO2] at a light (PAR) fluence rate of 150 μmol m^−2s^−1 were conducted with a Li-6400 gas exchange analyzer with a fluorometer chamber (Li-Cor Inc.) as described-previously (Hu at al, 2010). To reduce the wilting of abi1-1 and abi1-2 mutant leaves, all plants ware analyzed with a humidifier that humidified the air surrounding plants to ˜75-85%. Relative stomatal conductance values of intact leaves were calculated by normalization relative to 365 or 400 ppm just before transition to 800 ppm [CO2]. Data shown are mean±s.e. of at least 3 leaves per genotype in the same experimental set.

CCCC(=O)[O-].[Na+] [sodium butyrate]
ratiometric fluorescence (F470/F440) of Pt-GFP, intracellular pH ([1]; intact epidermes perfused with sodium butyrate-containing MES buffers, pH 5.6): clear shifts

O=C(O)O [bicarbonate]
current amplitude activated by bicarbonate at a voltage of −146 mV ([2]; Col-0 wild type guard cells, 2 μM [Ca2+]i, n=10): −59±5.9 pA
whole-cell current at a voltage of −144 mV ([2]; Col-0 wild type, extracellular bath perfusion with 13.5 mM total bicarbonate (11.5 mM free HCO3−, 2 mM CO2) pH 7.1, n=6): −17±5 pA
HCO3− activated S-type anion current at a voltage of −146 mV ([2]; Ler wild type guard cells, 2 μM [Ca2+]i, n=7): −51±4.3 pA
activation of anion currents ([2]; ca1;ca4 double mutant guard cells, 13.5 mM total bicarbonate (11.5 mM free [HCO3−]i/2 mM free [CO2]) pH 7.1, 2 μM [Ca2+]i): activated anion currents
activation of S-type anion currents ([2]; ht1-2 guard cells, 5.75 mM free [HCO3−]i and 1 mM free [CO2] pH 7.1, 2 μM [Ca2+]i, P<0.01): significant activation
activation of S-type anion currents ([2]; ht1-2 guard cells, 5.75 mM free [HCO3−]i, [Ca2+]i buffered to 0.15 μM): no significant S-type anion current activation
reversal potential of CO2+HCO3− activated whole-cell currents ([2]; imposed chloride equilibrium potential +31.1 mV, n=8): +24.0±3.6 mV
HCO3− activated S-type anion current at a voltage of −146 mV ([2]; ost1-2 mutant guard cells, 2 μM [Ca2+]i, n=6): −25.2±1.9 pA
current amplitude activated by bicarbonate at a voltage of −146 mV ([2]; ost1-3 mutant guard cells, 2 μM [Ca2+]i, n=6): −24±1.9 pA
anion currents in the presence of bicarbonate ([2]; slac1-1 mutant guard cell protoplasts, 11.5 mM free [HCO3−]i and 2 mM [CO2], similar to control, P>0.05): only small anion currents
I (pA) at −146 mV ([2]; [Ca^2+]i 0.15 μM, free [HCO3]i 11.5 mM): −22.3 ± 2.3^c pA
I (pA) at −146 mV ([2]; [Ca^2+]i 0.6 μM, free [HCO3]i 11.5 mM): −27.3 ± 4.5^f pA
I (pA) at −146 mV ([2]; [Ca^2+]i 2 μM, free [HCO3]i 5.75 mM): −21.8 ± 3.2^d pA
I (pA) at −146 mV ([2]; [Ca^2+]i 2 μM, free [HCO3]i 11.5 mM): −58.7 ± 5.9^e pA
activation of S-type anion currents ([2]; wild type, 13.04 mM free [HCO3−] with 0.46 mM free [CO2] at pH 7.8, 2 μM [Ca2+]i, P<0.05): S-type anion currents were activated
reversal potential of whole-cell S-type anion currents ([2]; wild type, 50 mM total bicarbonate in pipette pH 7.1 (43.4 mM free [HCO3−]i, 6.6 mM free [CO2]), n=4): +26.0±0.9 mV
relative permeability ratio of PHCO3−/PCi− ([2]; wild type, 50 mM total bicarbonate, estimated using the Goldman equation): 0.06±0.01
activation of S-type anion currents by extracellular application ([2]; wild type, bath perfused 2 min with 11.5 mM free [HCO3−] and 2 mM [CO2] at pH 7.1): No large S-type anion currents were activated
relative permeability ratio PHCO3−PCO− [3]: 0.8

O=C=O [CO2, carbon dioxide]
activation of S-type anion channel currents ([2]; wild type, 2 mM intracellular free [CO2] (1.1 mM free [HCO3−]i) at pH 6.1, P>0.05): not activated
guard cell intracellular pH fluorescence (Pt-GFP) ([1]; CO2 bubbled in extracellular perfusion buffers repeatedly shifted from 0 ppm to 800 ppm): no clear shifts
initial rate of stomatal conductance change ([4]; abi1-1 mutant plants, [CO2] shifted from 400 to 800 ppm for 30 min, ~75-85% humidity): -0.035 ± 0.007 mmol H2O m^-2 s^-1 min^-1
initial rate of stomatal conductance change ([4]; abi2-1 mutant plants, [CO2] shifted from 400 to 800 ppm for 30 min, ~75-85% humidity): -0.037 ± 0.007 mmol H2O m^-2 s^-1 min^-1
initial rate of stomatal conductance change ([4]; pyr1;pyl1;pyl2;pyl4 mutant plants, [CO2] shifted from 365 to 800 ppm for 30 min): −0.035±0.008 mmol H2O m^−2 s^−1 min^−1
initial rate of stomatal conductance change ([4]; pyr1;pyl1;pyl2;pyl4 mutant plants, first 30 min upon shifting [CO2] from 800 to 100 ppm): 0.022±0.002 mmol H2O m^−2 s^−1 min^−1
initial rate of stomatal conductance change ([4]; wild type plants, [CO2] shifted from 365 to 800 ppm for 30 min): −0.038±0.014 mmol H2O m^−2 s^−1 min^−1
initial rate of stomatal conductance change ([4]; wild type plants, [CO2] shifted from 400 to 800 ppm for 30 min, ~75-85% humidity): −0.041±0.01 mmol H2O m^−2 s^−1 min^−1
initial rate of stomatal conductance change ([4]; wild type plants, first 30 min upon shifting [CO2] from 800 to 100 ppm): 0.042±0.013 mmol H2O m^−2 s^−1 min^−1
